Experimental findings from patent US6117845A, “C-linked analogs of N-(4-hydroxyphenyl) retinamide” (Ohio State University Research Foundation, priority 1999, dated 2000) are described below.

One data set has as its system LA1-15n cells. The data set is described as follows: Assay for cell growth inhibition, LA1-15n cells, 48 h. The class given is cell-based. The following applies: human neuroblastoma LA1-15n cells, 0.1, 1 or 10 μM, FIG. 2. As for the experimental part: (§1) All-trans retinoic acid (atRA) was purchased from Eastman Kodak, Rochester, N.Y. Stock solutions were prepared in 100% ethanol and concentrations were determined on a Shimadzu UV-2100 spectrophotometer (4-HBR: λmax=380nm, ε=39,891; 4-HPR: λmax=365 nm, ε=47,900; atRA: λmax=340 nm, ε=45,300). Compound purity was assessed using a Waters HPLC-PDA with a 600E solvent delivery system using a Zorbax ODS, 250×4.6 mm, 5 micron column (Phenomenex, Torrance, Calif.). The column was equilibrated in 88% methanol/water with 10 mM ammonium acetate (flow rate of 1 ml/min). 4-HBR eluted at about 18 min., 4-HPR at about 12 min., and atRA at about 8 min with estimated purities of 96%, 100% and 100% respectively. Retinoids were blanketed with argon and stored at -70° C. until use. […]
Cells (100,000 cells) were passed into a 25 cm^3 flask in 10 ml of medium. […] Two 20 μl aliquots were counted from each treatment group on a Nikon Diaphot 200 fluorescent microscope. Four out of five fields were counted on each side of the hemocytometer. Fluorescence was used to count the number of live cells and phase-contrast was used to count the number of total cells. The average number of live cells per field was divided by the total number of cells per field and expressed as a percentage of the control. […]

The next data set concerns MCF7 cells. The data set is described as follows: Assay for cell growth inhibition, MCF-7 cells, 72 h. The class given is cell-based. The following applies: human mammary carcinoma MCF-7 cells, 0.1, 1 or 10 μM, FIG. 1. As to the method: as §1, with “respectively.” for “respectively. Retinoids were blanketed with argon and stored at -70° C. until use.”
Cells (100,000 cells) were passed into a 25 cm^3 flask in 10 ml of medium. […] Two 20 μl aliquots were counted from each treatment group on a Nikon Diaphot 200 fluorescent microscope. Four out of five fields were counted on each side of the hemocytometer. Fluorescence was used to count the number of live cells and phase-contrast was used to count the number of total cells. The average number of live cells per field was divided by the total number of cells per field and expressed as a percentage of the control.
The antiproliferative activity of 4-HPR, 4-HBR, and atRA against MCF-7 human mammary tumor cell culture models was determined using the above-described protocol. […]

The nature of a further data set: Acid stability of 4-HBR. The format is physicochemical. The settings on record: 0.1 N methanolic HCl at 37° C. for 2 hours.
In data set [1] the test system is serum retinol-binding protein (RBP). The experiment in a line: Serum retinol binding protein binding study (competition with tritiated all-trans retinol). The settings on record: human RBP 0.1 μg/μl, 250 nM all-trans-(3H)-ROL, 4° C., FIG. 3. As for the experimental part: RBP (human) was obtained commercially (Sigma). RBP (0.1 μg/μl) was incubated with 250 nM all-trans-(^3 H)-ROL (approx. 5 Ci/mmole) with and without competing ligands at 4° C. for 3 hours. Tritiated retinoid-labeled protein-containing extracts were treated with dextran-coated charcoal to remove unbound ligand before subjecting samples to sedimentation analysis on 5 to 20% sucrose density gradients. ^14 C-Labeled proteins were included with samples as internal sedimentation standards. Gradients were centrifuged at 257,000 g for 20 hours at 4° C. followed by fractionation and analysis of radioactivity.

Structures are written as SMILES.

As to `CC1=C(/C=C/C(C)=C/C=C/C(C)=C/C(=O)Cc2ccc(O)cc2)C(C)(C)CCC1` [compound 16, 4-hydroxybenzyl retinone], the “growth inhibition of LA1-15n cells (viability, live cells as percentage of control)” value with LA1-15n cells is “inhibits the growth of LA1-15n cells in a dose-dependant fashion”. For the same compound, in the data set with MCF7 cells, the “growth inhibition of MCF7 cells (viability, live cells as percentage of control)” value is “inhibits the growth of MCF7 cells in a dose-dependant fashion”. The “stability under acidic conditions” value in the data set “Acid stability of 4-HBR” is recorded as “remained intact”. The “affinity for serum RBP relative to 4-HPR” value in data set [1] is listed as “binds to serum RBP with less affinity than does 4-HPR”.
